{
  "source": "patent US20140323504A1",
  "about": "“Pyrazolo[4,3-c]Pyridine Derivatives As Kinase Inhibitors” (Cellzome Limited, priority 2011, published 2014)",
  "biological_target": "T1, JAK3 (Homo sapiens, UniProt P52333)",
  "T1 sequence (P52333 1-1124)": "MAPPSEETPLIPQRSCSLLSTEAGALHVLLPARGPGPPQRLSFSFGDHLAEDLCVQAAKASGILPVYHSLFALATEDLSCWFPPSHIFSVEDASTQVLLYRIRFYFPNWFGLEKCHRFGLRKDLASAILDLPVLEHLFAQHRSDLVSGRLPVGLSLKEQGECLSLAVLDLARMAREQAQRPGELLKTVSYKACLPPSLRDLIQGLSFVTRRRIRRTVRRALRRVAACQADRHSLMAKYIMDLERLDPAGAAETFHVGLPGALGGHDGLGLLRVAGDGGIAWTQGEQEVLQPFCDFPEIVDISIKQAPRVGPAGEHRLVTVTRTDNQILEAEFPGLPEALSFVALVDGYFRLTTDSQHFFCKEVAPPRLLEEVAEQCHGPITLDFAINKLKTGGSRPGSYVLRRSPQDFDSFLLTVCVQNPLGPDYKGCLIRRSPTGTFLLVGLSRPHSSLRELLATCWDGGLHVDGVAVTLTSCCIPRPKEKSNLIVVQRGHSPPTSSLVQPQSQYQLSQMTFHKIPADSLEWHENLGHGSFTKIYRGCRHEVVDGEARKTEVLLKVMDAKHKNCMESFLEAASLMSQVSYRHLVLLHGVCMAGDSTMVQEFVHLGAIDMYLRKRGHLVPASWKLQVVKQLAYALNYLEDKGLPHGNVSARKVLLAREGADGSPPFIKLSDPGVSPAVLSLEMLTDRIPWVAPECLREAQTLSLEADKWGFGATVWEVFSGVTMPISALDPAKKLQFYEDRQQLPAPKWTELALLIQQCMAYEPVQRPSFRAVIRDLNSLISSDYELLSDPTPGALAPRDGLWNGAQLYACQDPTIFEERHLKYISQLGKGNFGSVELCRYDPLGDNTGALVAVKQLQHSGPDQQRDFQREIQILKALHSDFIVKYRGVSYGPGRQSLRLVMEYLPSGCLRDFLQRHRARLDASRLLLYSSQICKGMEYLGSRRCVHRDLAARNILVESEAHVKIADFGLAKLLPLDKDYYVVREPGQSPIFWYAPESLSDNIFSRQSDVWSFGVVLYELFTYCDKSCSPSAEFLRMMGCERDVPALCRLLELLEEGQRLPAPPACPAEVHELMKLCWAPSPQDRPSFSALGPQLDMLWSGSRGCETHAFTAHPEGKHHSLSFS",
  "test": "Mass spectrometry identification of a JAK3 peptide modified by compound",
  "format": "binding",
  "set-up": "endogenous in cells; host or cells: Jurkat cells (ATCC TIB-152, clone E6-1) lysate; immunoprecipitated with anti-JAK3 antibody",
  "details": "Jurkat cell lysate, 10 μM compound, 45 minutes, JAK3 immunoprecipitation, LC-MS/MS",
  "protocol": "Mass spectrometry analysis of immunoprecipitated JAK3 after compound treatment was used to determine whether compound example 1 covalently binds to JAK3. Jurkat cell lysate was pre-incubated with 10 μM of compound example 1 for 45 minutes. Control samples were incubated without compound (DMSO controls). Subsequently JAK3 was immunoprecipitated with an anti-JAK3 antibody (Abeam ab45141). In addition, a control experiment was performed with anti-IgG (mock immunoprecipitation). The precipitated proteins were separated by SDS-polyacrylamide gel electrophoresis. The gel was stained with colloidal Coomassie and stained areas of each gel lane were cut out and subjected to in-gel proteolytic digestion with trypsin. The peptides originating from the three samples were labeled with iTRAQ reagents as shown in Table 13 and the combined samples were analyzed with a nano-flow liquid chromatography system coupled online to a tandem mass spectrometer (LC-MS/MS) experiment followed by iTRAQ reporter ion quantification in the MSMS spectra (Ross et al., 2004. Mol. Cell. Proteomics 3(12):1154-1169). The gel area containing JAK3 was analysed for 270 minutes with HCDiq (high mass accuracy MSMS spectra) on a Orbitrap Velos mass spectrometer. For the Mascot search standard parameters plus a variable modification of cysteine by compound example 1 was used. […]",
  "note": "Entries after “also recorded” stand apart in the source; their conditions may differ.",
  "data": [
    {"smiles": "C=CC(=O)Nc1cccc(Cn2ncc3cnc(Nc4cnn(C)c4)nc32)c1", "note": "[Example 1, N-(3-((6-((1-Methyl-1H-pyrazol-4-yl)amino)-1H-pyrazolo[3,4-d]pyrimidin-1-yl)methyl)phenyl)acrylamide]", "values": [
      {"measurement": "covalent binding to JAK3 (modified residue/peptide)", "result": "modified at cysteine 909; also recorded: covalently bound to cystein residue 909 (Cys909) of JAK3"}
    ]}
  ]
}
